Paper PMC7880690, “Chemical genetics and proteome-wide site mapping reveal cysteine MARylation by PARP-7 on immune-relevant protein targets” (eLife, 2021)

Legend:
PARP5bcat = biological target: T1, PARP5bcat (Homo sapiens, UniProt Q9H2K2); assay: ADP-ribosylation plate assay, PARP5bcat; assay type: biochemical; details: in vitro plate assay; ± SEM, at least two biological replicates
T1 construct: PARP5bcat

PARP-7 = biological target: T2, PARP-7 (Homo sapiens, UniProt Q7Z3E1)
T2 sequence (Q7Z3E1 1-657): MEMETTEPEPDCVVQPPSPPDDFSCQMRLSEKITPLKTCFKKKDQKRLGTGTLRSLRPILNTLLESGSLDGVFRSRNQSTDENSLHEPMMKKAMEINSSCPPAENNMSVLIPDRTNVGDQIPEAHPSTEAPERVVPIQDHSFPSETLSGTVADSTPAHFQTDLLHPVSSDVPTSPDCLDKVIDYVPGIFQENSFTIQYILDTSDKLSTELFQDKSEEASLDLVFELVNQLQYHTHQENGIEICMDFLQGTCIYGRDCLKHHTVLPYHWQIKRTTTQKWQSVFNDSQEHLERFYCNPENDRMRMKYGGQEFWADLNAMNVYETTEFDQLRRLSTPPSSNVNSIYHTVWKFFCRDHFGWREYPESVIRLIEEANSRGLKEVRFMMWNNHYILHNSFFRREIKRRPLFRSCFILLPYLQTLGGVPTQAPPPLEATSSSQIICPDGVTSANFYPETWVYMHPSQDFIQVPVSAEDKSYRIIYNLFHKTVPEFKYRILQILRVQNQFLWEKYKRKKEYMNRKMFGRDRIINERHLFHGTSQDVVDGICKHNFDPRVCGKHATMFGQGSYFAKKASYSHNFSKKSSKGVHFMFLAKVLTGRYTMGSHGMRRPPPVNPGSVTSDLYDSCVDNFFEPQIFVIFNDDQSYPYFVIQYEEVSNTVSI

PARP8FL = biological target: T3, PARP8FL (Homo sapiens, UniProt Q8N3A8); assay: ADP-ribosylation plate assay, PARP8FL
T3 sequence (Q8N3A8 1-854): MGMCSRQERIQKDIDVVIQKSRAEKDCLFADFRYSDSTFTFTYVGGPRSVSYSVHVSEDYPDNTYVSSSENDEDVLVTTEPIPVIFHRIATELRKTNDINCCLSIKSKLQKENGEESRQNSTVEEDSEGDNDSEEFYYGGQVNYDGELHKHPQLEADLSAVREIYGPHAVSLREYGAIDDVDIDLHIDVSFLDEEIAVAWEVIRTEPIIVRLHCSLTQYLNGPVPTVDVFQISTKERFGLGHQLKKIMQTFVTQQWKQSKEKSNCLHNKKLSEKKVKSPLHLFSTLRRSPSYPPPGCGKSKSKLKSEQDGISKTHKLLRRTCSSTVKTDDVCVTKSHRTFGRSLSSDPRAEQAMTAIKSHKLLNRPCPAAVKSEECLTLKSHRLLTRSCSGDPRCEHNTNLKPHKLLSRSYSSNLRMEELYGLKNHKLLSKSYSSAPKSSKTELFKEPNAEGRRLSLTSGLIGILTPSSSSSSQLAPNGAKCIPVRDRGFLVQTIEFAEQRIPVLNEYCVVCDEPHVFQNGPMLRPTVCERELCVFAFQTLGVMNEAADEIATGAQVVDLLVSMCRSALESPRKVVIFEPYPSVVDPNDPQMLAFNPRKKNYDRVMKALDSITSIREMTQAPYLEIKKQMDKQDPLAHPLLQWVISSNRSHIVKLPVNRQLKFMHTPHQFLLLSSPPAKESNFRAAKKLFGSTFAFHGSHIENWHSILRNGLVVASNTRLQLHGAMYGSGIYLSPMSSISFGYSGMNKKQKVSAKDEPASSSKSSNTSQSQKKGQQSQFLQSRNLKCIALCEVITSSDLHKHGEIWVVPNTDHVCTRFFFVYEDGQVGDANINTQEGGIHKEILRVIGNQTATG

PARP16FL = biological target: T4, PARP16FL (Homo sapiens, UniProt Q8N5Y8); assay: ADP-ribosylation plate assay, PARP16FL
T4 sequence (Q8N5Y8 1-322): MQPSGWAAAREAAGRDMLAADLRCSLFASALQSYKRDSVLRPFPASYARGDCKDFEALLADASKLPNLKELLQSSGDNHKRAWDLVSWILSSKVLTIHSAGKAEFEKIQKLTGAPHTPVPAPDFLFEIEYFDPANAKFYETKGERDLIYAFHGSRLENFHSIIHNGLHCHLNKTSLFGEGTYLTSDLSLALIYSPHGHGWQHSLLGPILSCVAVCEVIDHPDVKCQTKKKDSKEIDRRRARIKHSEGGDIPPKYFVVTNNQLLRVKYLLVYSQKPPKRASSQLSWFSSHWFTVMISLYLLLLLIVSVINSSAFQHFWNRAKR

T1 sequence (Q9H2K2 959-1164): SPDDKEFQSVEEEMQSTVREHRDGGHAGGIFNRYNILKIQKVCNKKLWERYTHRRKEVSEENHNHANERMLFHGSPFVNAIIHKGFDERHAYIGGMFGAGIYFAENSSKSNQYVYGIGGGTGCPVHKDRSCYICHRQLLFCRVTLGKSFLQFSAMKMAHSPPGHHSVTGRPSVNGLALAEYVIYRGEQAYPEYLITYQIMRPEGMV

N#Cc1ccc(N2CCN(C(=O)c3cc(Cc4n[nH]c(=O)c5ccccc45)ccc3F)CC2)nc1 [Phthal01, 6-(4-(2-fluoro-5-((4-oxo-3,4-dihydrophthalazin-1-yl)methyl)benzoyl)piperazin-1-yl)nicotinonitrile]
IC50 (PARP5bcat): 2.52 ± 0.2 µM | EC50 (PARP-7): ~0.06 µM | IC50 (PARP8FL): 4.7 ± 1 µM | IC50 (PARP16FL): 4.3 ± 1 µM
